Consider 20 compounds from paper PMC12310481, “Sequence, characterization and pharmacological analyses of the adipokinetic hormone receptor in the stick insect, Carausius morosus” (Frontiers in Endocrinology, 2025).

Several values for one entry are separate records, joined by “and”; a condition that tells them apart may be missing. Equal entries are not always repeated. Where two headings read alike, the source gives them in different places. Starred links: 1 amine or outer side, 2 acyl side, 3 side chain; linkers in the order of their positions; H or OH if unused. Non-standard residues stand in square brackets, D forms with d. Residues, ends and D or L forms follow the SMILES beside them. X1 = O=C([C@H](Cc1c([C@H]2O[C@H](CO)[C@@H](O)[C@H](O)[C@@H]2O)[nH]c2ccccc12)N[*:1])[*:2]; pGlu = O=C1CC[C@@H](C(=O)O)N1

The experiment relates to Carausius morosus AKH receptor (Carmo-AKHR). The experiment in a line: Calcium bioluminescence (aequorin) reporter assay, CHO-K1 cells stably expressing Carmo-AKHR. Format: cell-based. The settings on record: for Fold-reduction in activity (receptor activation relative to Carmo-HrTH-II): ratio of EC50 relative to Carmo-HrTH-II; for Receptor activation (in words): dose-response or clonal line testing, luminescence. The method, then: Functional activation of Carmo-AKHR was carried out by following mammalian cell culture procedures as previously described ([20], [29]) with the following modifications. […] At 24 h post-transfection, cells were selected in DMEM:F12 media containing 10% heat-inactivated fetal bovine serum (Wisent, St. Bruno, QC), 1x antimycotic-antibiotic and 600 μg/mL geneticin (G418) until clonal recombinant cells were evident in transfected cells while no live cells were present in non-transfected CHO-K1 cells (control). Individual clonal recombinant colonies were seeded into separate wells of a 96 well cell-culture dish (Sarstedt Inc., Montreal, QC) and grown to confluence while maintaining geneticin selection. To identify clonal recombinant lines with optimal Carmo-AKHR activity yielding the greatest signal-to-noise ratio, individual clonal recombinant lines were assayed in the bioluminescence reporter assay as described previously ([30]). […] The recombinant cell line showing the optimal luminescent response with greatest signal-to-noise ratio was expanded for preparation of cryo-stocks and subsequent detailed investigation of receptor specificity. […] Bruno, QC), 250 μg/mL Geneticin (MilliporeSigma Canada Ltd., Oakville, ON) and 1X antimycotic-antibiotic (ThermoFisher Scientific, Whitby, ON). […] Transfection was completed with PolyJetTM DNA In Vitro Transfection Reagent (FroggaBio, Toronto, ON) following manufacturer recommendations for transfection of adherent cells. At 48 hours post-transfection, cells were detached from culture flasks using Dulbecco's PBS (Wisent, St. Bruno, QC) containing 5 mM Ethylenediaminetetraacetic acid (EDTA) and were prepared for the functional assay as previously described ([30]). […] Immediately after injection of the cells into each well, luminescence was measured for 20 s using a Synergy 2 Multi-Mode Microplate Reader (BioTek, Winooski, VT, USA). […] Data were analyzed using a one-way or two-way ANOVA and Tukey's multiple comparisons post-hoc test, with differences between treatments considered significant if p<0.05.

Where [1] appears, read: CHO-K1 stably expressing Carmo-AKHR, transiently aequorin, luminescence measured 20 s, from dose-response activation curves, 3 to 4 independent biological replicates, normalized to ATP maximum, read-out: EC50 value.
Where [2] appears, read: minimal activity up to the highest concentration tested, read-out: EC50 value (M), not determinable: minimal activity.

In the case of `C[C@H](NC(=O)[C@@H]1CCC(=O)N1)C(=O)N[C@H](C(=O)N[C@@H](Cc1ccccc1)C(=O)N[C@H](C(=O)N1CCC[C@H]1C(=O)N[C@@H](CC(N)=O)C(=O)N[C@@H](Cc1c[nH]c2ccccc12)C(=O)NCC(=O)N[C@H](C(N)=O)[C@@H](C)O)[C@@H](C)O)[C@@H](C)O` [Ala^2-analog] ([pGlu]ATFTPNWGT-NH2), the “Fold-reduction in activity (receptor activation relative to Carmo-HrTH-II)” value is 9.42 fold. Also, the half-maximal effective concentration (EC50) under setting [1] came out at 6.93e-07 M. For `CC(C)C[C@H](NC(=O)[C@@H]1CCC(=O)N1)C(=O)N[C@H](C(=O)N[C@@H](Cc1ccccc1)C(=O)N[C@@H](C)C(=O)N1CCC[C@H]1C(=O)N[C@@H](CC(N)=O)C(=O)N[C@@H](Cc1c[nH]c2ccccc12)C(=O)NCC(=O)N[C@H](C(N)=O)[C@@H](C)O)[C@@H](C)O` [Ala^5-analog] ([pGlu]LTFAPNWGT-NH2) the same measures were 1166.83 fold and 8.58e-05 M. `CC(C)C[C@H](NC(=O)[C@@H]1CCC(=O)N1)C(=O)N[C@H](C(=O)N[C@@H](Cc1ccccc1)C(=O)N[C@H](C(=O)N[C@@H](C)C(=O)N[C@@H](CC(N)=O)C(=O)N[C@@H](Cc1c[nH]c2ccccc12)C(=O)NCC(=O)N[C@H](C(N)=O)[C@@H](C)O)[C@@H](C)O)[C@@H](C)O` [Ala^6-analog] ([pGlu]LTFTANWGT-NH2): the “Fold-reduction in activity (receptor activation relative to Carmo-HrTH-II)” value was 5.49 fold. Moreover, the concentration for a half-maximal effect (EC50) under setting [1] stood at 4.04e-07 M. The corresponding values for `CC(C)C[C@H](NC(=O)[C@@H]1CCC(=O)N1)C(=O)N[C@H](C(=O)N[C@@H](Cc1ccccc1)C(=O)N[C@H](C(=O)N1CCC[C@H]1C(=O)N[C@@H](C)C(=O)N[C@@H](Cc1c[nH]c2ccccc12)C(=O)NCC(=O)N[C@H](C(N)=O)[C@@H](C)O)[C@@H](C)O)[C@@H](C)O` [Ala^7-analog] ([pGlu]LTFTPAWGT-NH2) are 4.21 fold and 3.1e-07 M. On to `CC(C)C[C@H](NC(=O)[C@@H]1CCC(=O)N1)C(=O)N[C@H](C(=O)N[C@@H](Cc1ccccc1)C(=O)N[C@H](C(=O)N1CCC[C@H]1C(=O)N[C@@H](CC(N)=O)C(=O)N[C@@H](C)C(=O)NCC(=O)N[C@H](C(N)=O)[C@@H](C)O)[C@@H](C)O)[C@@H](C)O` [Ala^8-analog] ([pGlu]LTFTPNAGT-NH2), for which the “Fold-reduction in activity (receptor activation relative to Carmo-HrTH-II)” value is recorded as over 1360 fold. In addition, under setting [2], the concentration giving a half-maximal response (EC50) is over 0.0001 M.

As for `CC(C)C[C@H](NC(=O)[C@@H]1CCC(=O)N1)C(=O)N[C@H](C(=O)N[C@@H](Cc1ccccc1)C(=O)N[C@H](C(=O)N1CCC[C@H]1C(=O)N[C@@H](CC(N)=O)C(=O)N[C@@H](Cc1c[nH]c2ccccc12)C(=O)N[C@@H](C)C(=O)N[C@H](C(N)=O)[C@@H](C)O)[C@@H](C)O)[C@@H](C)O` [Ala^9-analog] ([pGlu]LTFTPNWAT-NH2), the “Fold-reduction in activity (receptor activation relative to Carmo-HrTH-II)” value was 20.18 fold. Under setting [1], the EC50 amounted to 1.48e-06 M. For `CC(C)C[C@H](NC(=O)[C@@H]1CCC(=O)N1)C(=O)N[C@H](C(=O)N[C@@H](Cc1ccccc1)C(=O)N[C@H](C(=O)N1CCC[C@H]1C(=O)N[C@@H](CC(N)=O)C(=O)N[C@@H](Cc1c[nH]c2ccccc12)C(=O)NCC(=O)N[C@@H](C)C(N)=O)[C@@H](C)O)[C@@H](C)O` [Ala^10-analog] ([pGlu]LTFTPNWGA-NH2) the same measures were 0.15 fold and 1.1e-08 M. For the compound `CC(C)C[C@H](NC(=O)[C@@H]1CCC(=O)N1)C(=O)N[C@H](C(=O)N[C@@H](Cc1ccccc1)C(=O)N[C@H](C(=O)N1CCC[C@H]1C(=O)N[C@@H](CC(N)=O)C(=O)N[C@@H](Cc1c[nH]c2ccccc12)C(=O)NCC(=O)N[C@H](C(=O)O)[C@@H](C)O)[C@@H](C)O)[C@@H](C)O` [Carmo-HrTH-II free acid] ([pGlu]LTFTPNWGT-OH), the “Fold-reduction in activity (receptor activation relative to Carmo-HrTH-II)” value is reported as over 1360 fold. The EC50 under setting [2] is over 0.0001 M.

With `CC(C)C[C@H](N)C(=O)N[C@H](C(=O)N[C@@H](Cc1ccccc1)C(=O)N[C@H](C(=O)N1CCC[C@H]1C(=O)N[C@@H](CC(N)=O)C(=O)N[C@@H](Cc1c[nH]c2ccccc12)C(=O)NCC(=O)N[C@H](C(N)=O)[C@@H](C)O)[C@@H](C)O)[C@@H](C)O` [Carmo-HrTH-II minus pGlu] (H-LTFTPNWGT-NH2), the “Fold-reduction in activity (receptor activation relative to Carmo-HrTH-II)” value is given as over 1360 fold. For the same compound, the 50% effective concentration (EC50) under setting [2] is over 0.0001 M. With `CC(C)C[C@H](NC(=O)[C@@H]1CCC(=O)N1)C(=O)N[C@H](C(=O)N[C@@H](Cc1ccccc1)C(=O)N[C@H](C(=O)N1CCC[C@H]1C(=O)N[C@@H](CC(N)=O)C(=O)N[C@@H](Cc1c[nH]c2ccccc12)C(=O)NCC(=O)N[C@H](C(N)=O)[C@@H](C)O)[C@@H](C)O)[C@@H](C)O` [Carmo-HrTH-II] ([pGlu]LTFTPNWGT-NH2), the 50% effective concentration (EC50) under setting [1] amounted to 7.36e-08 M. With `CC(C)C[C@H](NC(=O)[C@@H]1CCC(=O)N1)C(=O)N[C@H](C(=O)N[C@@H](Cc1ccccc1)C(=O)N[C@H](C(=O)N1CCC[C@H]1C(=O)N[C@@H](CC(N)=O)C(=O)N[C@@H](Cc1c([C@H]2O[C@H](CO)[C@@H](O)[C@H](O)[C@@H]2O)[nH]c2ccccc12)C(=O)NCC(=O)N[C@H](C(N)=O)[C@@H](C)O)[C@@H](C)O)[C@@H](C)O` [Carmo-HrTH-I] ([pGlu]LTFTPN[X1]GT-NH2), the “Fold-reduction in activity (receptor activation relative to Carmo-HrTH-II)” value was determined as 1.22 fold. Under setting [1], the EC50 amounted to 8.97e-08 M. `CC(C)C[C@H](NC(=O)[C@@H]1CCC(=O)N1)C(=O)N[C@@H](CC(N)=O)C(=O)N[C@@H](Cc1ccccc1)C(=O)N[C@@H](CO)C(=O)N1CCC[C@H]1C(=O)NCC(=O)N[C@@H](Cc1c[nH]c2ccccc12)C(N)=O` [Panbo-RPCH] ([pGlu]LNFSPGW-NH2): the “Fold-reduction in activity (receptor activation relative to Carmo-HrTH-II)” value was 455 fold and 455.74 fold. The EC50 under setting [1] is 3.35e-05 M.

Turning to `CC(C)[C@H](NC(=O)[C@@H]1CCC(=O)N1)C(=O)N[C@@H](CC(N)=O)C(=O)N[C@@H](Cc1ccccc1)C(=O)N[C@@H](CO)C(=O)N1CCC[C@H]1C(=O)N[C@@H](CC(N)=O)C(=O)N[C@@H](Cc1c[nH]c2ccccc12)C(N)=O` [Peram-CAH-I] ([pGlu]VNFSPNW-NH2), the “Receptor activation (in words)” value is “complete loss of efficacy” and the “Fold-reduction in activity (receptor activation relative to Carmo-HrTH-II)” value is recorded as over 1360 fold. For the same compound, under setting [2], the EC50 was over 0.0001 M. Take `CC[C@H](C)[C@H](NC(=O)[C@@H]1CCC(=O)N1)C(=O)N[C@H](C(=O)N[C@@H](Cc1ccccc1)C(=O)N[C@H](C(=O)N1CCC[C@H]1C(=O)N[C@@H](CC(N)=O)C(=O)N[C@@H](Cc1c[nH]c2ccccc12)C(N)=O)[C@@H](C)O)[C@@H](C)O` [Polae-HrTH] ([pGlu]ITFTPNW-NH2): the “Fold-reduction in activity (receptor activation relative to Carmo-HrTH-II)” value is 120 fold and 119.12 fold. Further, the EC50 under setting [1] turned out to be 8.76e-06 M. With `CC(C)C[C@H](NC(=O)[C@@H]1CCC(=O)N1)C(=O)N[C@H](C(=O)N[C@@H](Cc1ccccc1)C(=O)N[C@H](C(=O)N1CCC[C@H]1C(=O)N[C@@H](CC(N)=O)C(=O)N[C@@H](Cc1c[nH]c2ccccc12)C(=O)NCC(N)=O)[C@@H](C)O)[C@@H](C)O` [Triin-AKH] ([pGlu]LTFTPNWG-NH2), the “Fold-reduction in activity (receptor activation relative to Carmo-HrTH-II)” value was found to be 7.45 fold. Also, the concentration for a half-maximal effect (EC50) under setting [1] is 5.48e-07 M.

For `CC(=O)N[C@@H](C)C(=O)N[C@@H](CC(C)C)C(=O)N[C@H](C(=O)N[C@@H](Cc1ccccc1)C(=O)N[C@H](C(=O)N1CCC[C@H]1C(=O)N[C@@H](CC(N)=O)C(=O)N[C@@H](Cc1c[nH]c2ccccc12)C(=O)NCC(=O)N[C@H](C(N)=O)[C@@H](C)O)[C@@H](C)O)[C@@H](C)O` [[N-Ac. Ala]^1-analog] (Ac-ALTFTPNWGT-NH2), the “Fold-reduction in activity (receptor activation relative to Carmo-HrTH-II)” value is over 1360 fold. Under setting [2], the EC50 is over 0.0001 M.

In the case of “[pGlu]LAFTPNWGT-NH2 [Ala^3-analog, alanine-substituted analog of Carmo-HrTH-II, position 3]”, the “Fold-reduction in activity (receptor activation relative to Carmo-HrTH-II)” value stood at 1045.82 fold.

On to “[pGlu]LTATPNWGT-NH2 [Ala^4-analog, alanine-substituted analog of Carmo-HrTH-II, position 4]”, for which the “Fold-reduction in activity (receptor activation relative to Carmo-HrTH-II)” value is over 1360 fold. On to “[pGlu]VTFSRDWNA-NH2 [Aedae-ACP, AKH/corazonin-related peptide of Aedes aegypti]”, for which the “Receptor activation (in words)” value is listed as “failed to activate the receptor at all tested doses”.

For the compound “pETFQYSRGWTN amide [Aedae-Crz, corazonin of the mosquito Aedes aegypti]”, the “Receptor activation (in words)” value is reported as “failed to activate the receptor at all tested doses”.
